PMC11574045, “A cofactor-induced repressive type of transcription factor condensation can be induced by synthetic peptides to suppress tumorigenesis” (The EMBO Journal, 2024)

Each substance was assayed on HEK293FT cells transfected with TF library (assay: Screening of TF condensates based on fluorescent puncta). Settings: Figure 1B numerical data; TF library screen, one value per transcriptional factor.
Assay type: cell-based
Protocol: TF plasmids were automatically added to black-walled 384-well plates at 80 ng per well to reach a final concentration of 1.6 μg/ml. Polyethylenimine (PEI, Sigma) was then added to the plasmid-loaded plates at 240 ng per well (4.8 μg/ml). Subsequently, HEK293FT cells were seeded into the plate at 2000 cells per well. After 60 h, cells were cultured in medium with or without glucose for 12 h, and then fixed with 4% paraformaldehyde (PFA) at room temperature for 30 min. After three washes with PBS, fixed cells were permeabilized with 0.05% Triton X-100 for 15 min. Thereafter, cells were blocked with 5% BSA for 1 h, and then incubated overnight with anti-Flag (Sigma F3165, 1:200) and anti-GAL4 (Abbkine ABP57232, 1:200) primary antibodies at 4 °C. The cells were then gently washed with PBS, followed by being incubated with Alexa Fluor Plus 488 goat anti-mouse IgG secondary antibody (Thermo A32723, 1:400) or Alexa Fluor Plus 488 goat anti-rabbit IgG secondary antibody (Thermo A32731, 1:400) for 1 h. The plates were kept at 4 °C in the dark before being analyzed using an Opera System (Perkin Elmer). Fifty random fields per well were scanned and analyzed using the Columbus Plus Image Data Storage and Analysis System (Perkin Elmer).

First: ZNF132
Second: HIVEP2
The “Z score of condensed fraction” value of the first is higher: -0.5777 for the first, -0.8032 for the second.

Going from ZNF22 to KLF15, the “Z score of condensed fraction” value rises from -0.4323 to 0.8588.

First: CTBP2
Second: DLX5
The “Z score of condensed fraction” value of the first is higher: 1.5 for the first, -0.5192 for the second.

Going from TFAP2E to HOXA10, the “Z score of condensed fraction” value falls from 1.779 to -0.1146.

First: MTF1
Second: ZSCAN23
The “Z score of condensed fraction” value of the first is lower: 0.05882 for the first, 0.2133 for the second.

First: GLI2
Second: HOXB5
The “Z score of condensed fraction” value of the first is lower: -0.605 for the first, -0.4916 for the second.

Compared with ZNF785, GBX1 is higher in “Z score of condensed fraction” value: -0.4418 for the first, 1.521 for the second.

Compared with GFI1B, LHX6 is higher in “Z score of condensed fraction” value: -0.772 for the first, -0.2026 for the second.

Compared with SOX15, PDX1 is lower in “Z score of condensed fraction” value: 0.259 for the first, -0.1162 for the second.

First: PCBD2
Second: DYRK1B
The “Z score of condensed fraction” value of the first is lower: -0.6918 for the first, -0.5775 for the second.

Going from HOXB8 to ZSCAN2, the “Z score of condensed fraction” value rises from -0.6846 to -0.2191.

Going from PRDM4 to ZNF10, the “Z score of condensed fraction” value falls from -0.7551 to -0.8346.

First: DLX3
Second: ZNF417
The “Z score of condensed fraction” value of the first is lower: -0.9246 for the first, 1.093 for the second.

Compared with NFIC, ZNF267 is higher in “Z score of condensed fraction” value: -0.8557 for the first, 2.62 for the second.

Going from ZNF227 to MSX1, the “Z score of condensed fraction” value rises from -1.039 to -0.7505.

First: ZNF302
Second: NPM1
The “Z score of condensed fraction” value of the first is lower: -1.141 for the first, 0.01602 for the second.

Going from GSC2 to SPIB, the “Z score of condensed fraction” value rises from -0.9708 to -0.6455.

Going from ETS2 to ZFP263, the “Z score of condensed fraction” value rises from -0.1278 to 2.5993.

Compared with ZNF621, ETV6 is higher in “Z score of condensed fraction” value: -0.6157 for the first, -0.2068 for the second.

First: ZNF500
Second: ST18
The “Z score of condensed fraction” value of the first is lower: -0.7824 for the first, -0.7086 for the second.

Going from ZNF768 to SUPT3H, the “Z score of condensed fraction” value rises from -0.6686 to 2.5076.

Going from TIGD4 to DOUBLESEX, the “Z score of condensed fraction” value rises from -0.7471 to -0.4806.

Going from SOX14 to HOXA6, the “Z score of condensed fraction” value rises from 0.5877 to 1.681.

First: HOX11L2/RNX
Second: ZNF496
The “Z score of condensed fraction” value of the first is higher: 0.134 for the first, 0.02283 for the second.

First: SP4
Second: ZFP1
The “Z score of condensed fraction” value of the first is higher: 0.4803 for the first, -1.01 for the second.

First: NR5A1
Second: ZNF175
The “Z score of condensed fraction” value of the first is lower: -0.8082 for the first, -0.614 for the second.

Compared with PAX9, HOXD10 is higher in “Z score of condensed fraction” value: -0.6994 for the first, -0.4162 for the second.

Compared with PHOX2A, PITX1 is higher in “Z score of condensed fraction” value: 0.2668 for the first, 0.6327 for the second.

Compared with FIGLA, KDM5D is lower in “Z score of condensed fraction” value: 0.3984 for the first, 0.3583 for the second.

Going from HOXC11 to HOXB4, the “Z score of condensed fraction” value falls from -0.01391 to -1.061.

Going from ZNF57 to GFI1, the “Z score of condensed fraction” value falls from 0.3 to -0.2635.

First: MAX
Second: GATA3
The “Z score of condensed fraction” value of the first is higher: 1.089 for the first, -0.2833 for the second.

First: HOXA9
Second: ZNF273
The “Z score of condensed fraction” value of the first is lower: -1.01 for the first, -0.8812 for the second.

First: ZNF747
Second: COPS5
The “Z score of condensed fraction” value of the first is higher: 1.603 for the first, -0.1538 for the second.

Compared with ZBTB16, HOXD1 is lower in “Z score of condensed fraction” value: 0.8279 for the first, -0.8333 for the second.

Going from BTEB1 to ZNF257, the “Z score of condensed fraction” value rises from -0.01224 to 0.03056.

First: ZNF689
Second: ZNF92
The “Z score of condensed fraction” value of the first is lower: -0.54 for the first, 0.2513 for the second.

Compared with HDGF, DMBX1 is lower in “Z score of condensed fraction” value: 2.149 for the first, -0.1986 for the second.

Going from CHD6 to ZNF596, the “Z score of condensed fraction” value rises from -1.082 to -0.5741.

Compared with ZNF670, ZNF562 is lower in “Z score of condensed fraction” value: 2.5783 for the first, 1.118 for the second.

First: ZKSCAN8
Second: MAD2
The “Z score of condensed fraction” value of the first is higher: -0.06563 for the first, -0.8457 for the second.

First: ZNF454
Second: ZNF572
The “Z score of condensed fraction” value of the first is higher: -0.2763 for the first, -0.6768 for the second.

Going from ZNF433 to ZNF677, the “Z score of condensed fraction” value falls from -0.2089 to -0.6787.

First: ATF4/CREB2
Second: NFIB
The “Z score of condensed fraction” value of the first is higher: 2.625 for the first, 0.509 for the second.

Compared with ZNF197, OTX1 is higher in “Z score of condensed fraction” value: -0.8156 for the first, -0.7284 for the second.

Compared with ZNF432, ZNF549 is higher in “Z score of condensed fraction” value: -0.5974 for the first, 2.12 for the second.

First: TLX2
Second: MECOM
The “Z score of condensed fraction” value of the first is higher: -0.3265 for the first, -0.8438 for the second.

First: EHF
Second: XRCC6
The “Z score of condensed fraction” value of the first is higher: -0.3879 for the first, -0.8161 for the second.

First: ELK3
Second: ZNF329
The “Z score of condensed fraction” value of the first is higher: 0.04681 for the first, -0.4972 for the second.

First: CSDA
Second: NEUROD6
The “Z score of condensed fraction” value of the first is lower: -0.8745 for the first, 1.486 for the second.

First: TAL2
Second: ZNF212
The “Z score of condensed fraction” value of the first is higher: 1.36 for the first, -0.4443 for the second.

Going from PRDM13 to ZNF133, the “Z score of condensed fraction” value falls from -0.08172 to -0.4329.

Compared with TFAP2C, HOXC4 is lower in “Z score of condensed fraction” value: 1.42 for the first, 0.8193 for the second.

Compared with RREB1, BACH2 is higher in “Z score of condensed fraction” value: -1.018 for the first, 2.257 for the second.

Going from ZNF707 to HOXB7, the “Z score of condensed fraction” value falls from 0.9339 to 0.6165.

First: ZNF320
Second: HOXC10
The “Z score of condensed fraction” value of the first is higher: 0.5251 for the first, -0.2628 for the second.

Going from SUMO1 to ZDHHC17, the “Z score of condensed fraction” value rises from -0.2512 to 0.6824.

Compared with PHF19, ZNF333 is lower in “Z score of condensed fraction” value: -0.6582 for the first, -0.8758 for the second.

Going from FEV to DLX6, the “Z score of condensed fraction” value falls from -0.8157 to -0.9336.

Compared with CFOS, TULP4 is lower in “Z score of condensed fraction” value: 0.6801 for the first, -0.4703 for the second.

First: PNRC2
Second: ZFP161
The “Z score of condensed fraction” value of the first is higher: 0.4868 for the first, -0.4432 for the second.

First: PHOX2B
Second: SOX5
The “Z score of condensed fraction” value of the first is lower: -1.179 for the first, -1.09 for the second.

First: MYT1L
Second: KDM5C
The “Z score of condensed fraction” value of the first is lower: -0.407 for the first, 0.549 for the second.

Compared with HOXD4, ZNF177 is lower in “Z score of condensed fraction” value: -0.2008 for the first, -0.2364 for the second.

Going from ARX to EGR2, the “Z score of condensed fraction” value falls from -0.4034 to -0.8859.

Compared with BMAL1, ZNF490 is lower in “Z score of condensed fraction” value: -0.6251 for the first, -0.9623 for the second.

Compared with ZNF37A, ZNF540 is lower in “Z score of condensed fraction” value: -0.5462 for the first, -0.9698 for the second.

Compared with KLF13, ZNF223 is higher in “Z score of condensed fraction” value: -0.9454 for the first, 0.1367 for the second.

First: TGIF2
Second: HOXA1
The “Z score of condensed fraction” value of the first is higher: 0.8605 for the first, -0.1685 for the second.
